What all share (assay type): cell-based
Experiment [1] has as its system RS4;11 cells. Description: Cell viability assay (CellTiter-Glo) in RS4;11 cells. Conditions: cell viability, read-out: IC50. The method in brief: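 Three-day compound treatment of RS4;11 ALL cells (5000/well, 3-fold dilution series of 8 or 12 points), with IC50 from a nonlinear least-squares fit to CellTiter-Glo viability data.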
On the technique in general: Cellular ATP, detected with luciferase, serves as a proxy for viable cell number.

Experiment [2] relates to HEL cells. Description: Cell viability assay (CellTiter-Glo) in HEL cells. Conditions: erythroleukemia, cell viability, 3 days. The protocol:
(§1) MV4;11, RS4;11, Kasumi-1, HEL and other cells were treated with NVP-BSK805, TG101209 or selected degraders for 3 days at indicated concentrations following a 3-fold serial dilution.
(§2) HEL, RS4;11, MV4;11, Kasumi-1 and other cells were cultured at 37° C. with 5% CO2 in RPMI 1640 or DMEM Medium supplemented with 10% fetal bovine serum. Cells were authenticated using the short tandem repeat (STR) assays. Mycoplasma test results were negative.
(§3) Cells were seeded at a density of 5000 cells per well in 96-well assay plates and treated with test compounds following a 8-point or 12-point 3-fold serial dilution. Three days later, cell viability was determined using the CellTiter-Glo assay kit according to the manufacturer's instructions. The dose-response curves were determined and IC50 values were calculated using the GraphPad Prism software following a nonlinear regression (least squares fit) method.

For experiment [3], the system named is MOLT-4 cells. Description: Cell viability assay (CellTiter-Glo) in MOLT-4 cells. As to conditions: MOLT-4, T-ALL, 3 days. As for the experimental part: as §1, §2, §3
The test system of experiment [4] is CCRF-CEM cells. Description: Cell viability assay (CellTiter-Glo) in CCRF-CEM cells. As to conditions: T-ALL, 3 days. As for the experimental part: as §1, §2, §3
In experiment [5] the test system is Jurkat cells. As to the kind of experiment: Cell viability assay (CellTiter-Glo) in Jurkat cells. As to conditions: T-ALL, 3 days. As for the experimental part:
as §1, §2, §3

The test system of experiment [6] is MV4;11 cells. Description: Cell viability assay (CellTiter-Glo) in MV4;11 cells. Conditions: MV4;11, AML; cell viability, 3 days. The protocol: as §1, §2, §3
The test system of experiment [7] is Kasumi-1 cells. As to the kind of experiment: Cell viability assay (CellTiter-Glo) in Kasumi-1 cells. Conditions: Kasumi-1, AML; cell viability, 3 days. The protocol: as §1, §2, §3
The test system of experiment [8] is NOMO-1 cells. Description: Cell viability assay (CellTiter-Glo) in NOMO-1 cells. Conditions: NOMO-1, AML, 3 days. As for the experimental part:
as §1, §2, §3

The subject of experiment [9] is MOLM-13 cells. Description: Cell viability assay (CellTiter-Glo) in MOLM-13 cells. Conditions: MOLM-13, AML, 3 days. As for the experimental part: as §1, §2, §3
In experiment [10] the test system is HL-60 cells. As to the kind of experiment: Cell viability assay (CellTiter-Glo) in HL-60 cells. As to conditions: HL-60, APL, 3 days. As for the experimental part:
as §1, §2, §3

Experiment [11] concerns MM.1S cells. As to the kind of experiment: Cell viability assay (CellTiter-Glo) in MM.1S cells. Conditions: Multiple Myeloma, 3 days. The protocol: as §1, §2, §3
The subject of experiment [12] is AMO-1 cells. Description: Cell viability assay (CellTiter-Glo) in AMO-1 cells. As to conditions: AMO-1, Multiple Myeloma, 3 days. As for the experimental part:
as §1, §2, §3

The test system of experiment [13] is NCI-H929 cells. As to the kind of experiment: Cell viability assay (CellTiter-Glo) in NCI-H929 cells. As to conditions: NCI-H929, Multiple Myeloma, 3 days. As for the experimental part: as §1, §2, §3
Experiment [14] has as its system MEG-01 cells. Description: Cell viability assay (CellTiter-Glo) in MEG-01 cells. As to conditions: MEG-01, CML, 3 days. The protocol:
as §1, §2, §3

Experiment [15] has as its system WSU-DLCL2 cells. Description: Cell viability assay (CellTiter-Glo) in WSU-DLCL2 cells. Conditions: WSU-DLCL2, DLBCL, 3 days. As for the experimental part:
as §1, §2, §3

The subject of experiment [16] is Pfeiffer cells. Description: Cell viability assay (CellTiter-Glo) in Pfeiffer cells. As to conditions: DLBCL, 3 days. As for the experimental part: as §1, §2, §3
In experiment [17] the test system is SU-DHL-1 cells. Description: Cell viability assay (CellTiter-Glo) in SU-DHL-1 cells. Conditions: SU-DHL-1, large cell lymphoma, 3 days. The protocol: as §1, §2, §3
Experiment [18] deals with KM12 cells. Description: Cell viability assay (CellTiter-Glo) in KM12 cells. As to conditions: KM12, colorectal carcinoma, 3 days. The protocol: as §1, §2, §3

Here are results for 1 compound from patent publication US20230093099A1, “COMPOUNDS AND METHODS OF TREATING CANCERS” (CULLGEN (SHANGHAI), INC., priority 2019, published 2023).

pIC50: −log10 of the molar value. Like-named read-outs stand apart in the source and are kept apart here.

On to `Fc1cc(-c2cccc3ncc(-c4cnn(C5CCNCC5)c4)nc23)cc(F)c1CN1CCOCC1` [NVP-BSK805, reference compound], for which the negative logarithm of the IC50 (pIC50) (as a rule, the negative decadic logarithm of the IC50, by convention in mol/L) in experiment [1] (RS4;11, B-ALL, 3 days (Table 3)) is less than 5.00; in experiment [1] (RS4;11 cells, 3 days, CellTiter-Glo), less than 5.00; in [2], 5.98; in experiment [3], less than 5.00; in [4], less than 5.00; in [5] it was 5.60. The pIC50 in experiment [6] is 6.41; in [7], 6.12; in [8], 5.20; in experiment [9], 6.70; in experiment [10] it was less than 5.00; in experiment [11], less than 5.00. In addition, the negative logarithm of the IC50 (pIC50) in experiment [12] is less than 5.00; in [13] it was less than 5.00; in [14], 5.05; in experiment [15], less than 5.00; in experiment [16], less than 5.00; in experiment [17], less than 5.00. Further, the negative logarithm of the IC50 (pIC50) in experiment [18] is 5.54.
